Source: patent US20060063784A1, “Method of using substituted pyrazolo [1,5-a] pyrimidines” (priority 2004, published 2006)

Tested on: 80S14 (p21-deficient) cells
Test: Cytotoxicity assay using isogenic cell lines: IC50 in 80S14 (p21-deficient) cells, SRB
Assay type: cell-based, human
Details: 80S14 (p21-deficient) cells, 5 days, SRB; class symbols; read-out: IC50 for 80S14
Procedure, shortened: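 80S14 (p21-deficient) cells seeded at 12,000 cells/well overnight, then exposed 5 days at 37 °C to serial dilutions (5 pM–50 μM or 170 pg/ml–10 μg/ml). TCA-fixed, sulforhodamine B-stained, absorbance at 560 nm; IC50 taken from cytotoxicity curves versus untreated controls.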

| Molecule | IC50 [µM] |
| --- | --- |
| tert-Butyl 4-[({3-[3-[3-(thien-2-ylcarbonyl)pyrazolo[1,5-a]pryimidin-7-yl]phenyl}amino)carbonyl]piperidine-1-carboxylate [Example 405] | 1 to 10 |

Same assay, conditions: 80S14 p21-deficient cells, 5 days incubation, SRB; read-out: IC50 for 80SI4

| Molecule | IC50 [µM] |
| --- | --- |
| O=C(Nc1cccc(-c2ccnc3c(C(=O)c4cccs4)cnn23)c1)c1ccc(Cl)cc1 [Example 89] | 1 to 10 |
| O=C(Cc1cccs1)Nc1cccc(-c2ccnc3c(C(=O)c4cccs4)cnn23)c1 [Example 66] | < 1 |
| CC(=O)OCC(=O)Nc1cccc(-c2ccnc3c(C(=O)c4cccs4)cnn23)c1 [Example 62, 2-oxo-2-({3-[3-(thien-2-ylcarbonyl)pyrazolo[1.5-a]pyrimidin-7-yl]phenyl]amino)ethyl acetate] | 1 to 10 |
| CCN(CC)CCC(=O)Nc1cccc(-c2ccnc3c(C(=O)c4cccs4)cnn23)c1 [Example 65, N-3,N-3-diethyl-N-1-{3-[3-(thien-2-ylcarbonyl)pyrazolo[1,5-a]pyrimidin-7-yl]phenyl}-beta-alaninamide] | 10 to 50 |
| O=C(Nc1cccc(-c2ccnc3c(C(=O)c4cccs4)cnn23)c1)OCC(Cl)(Cl)Cl [Example 18, 2,2,2-trichlroethyl 3-[3-(thien-2-ylcarbonyl)pyrazolo[1,5-a]pyrimidin-7-yl]phenylcarbamate] | < 1 |

Same assay, conditions: Homo sapiens, 80S14, 120 h, read-out: IC50 for 80S14 (uM)

| Molecule | IC50 [µM] |
| --- | --- |
| CCC(=O)N(C)c1cccc(-c2ccnc3c(C(=O)c4cccs4)cnn23)c1 [Example 237, N-Methyl-N-[3-[3-(2-thienylcarbonyl)-pyrazolo[1,5-a]pyrimidin-7-yl]phenyl}-propanamide] | 1 to 10 |
| CC(C)OC(=O)Nc1cccc(-c2ccnc3c(C(=O)C4CCCC4)cnn23)c1 [Example 295, Isopropyl 3-[3-(cyclopentylcarbonyl)pyrazolo[1,5-a]pyrimidin-7-yl]phenylcarbamate] | 1 to 10 |

Same assay, conditions: Homo sapiens, 80S14, 120 h, read-out: IC50 for 80SI4 (uM)

| Molecule | IC50 [µM] |
| --- | --- |
| CCCC(C)C(=O)Nc1cccc(-c2ccnc3c(C(=O)c4cccs4)cnn23)c1 (stereo not shown) [Example 154, 2-methyl-N-{3-[3-(thien-2-ylcarbonyl)pyrazolo[1,5-a]pyrimidin-7-yl]phenyl}pentanamide] | < 1 |
| CCC(CC)C(=O)Nc1cccc(-c2ccnc3c(C(=O)c4cccs4)cnn23)c1 [Example 150, 2-ethyl-N-{3-[3-(thien-2-ylcarbonyl)pyrazolo[1,5-a]pyrimidin-7-yl]phenyl}butanamide] | 1 to 10 |
| C#CCCOC(=O)Nc1cccc(-c2ccnc3c(C(=O)c4cccs4)cnn23)c1 [Example 193, but-3-ynyl 3-[3-(thien-2-ylcarbonyl)pyrazolo[1,5-a]pyrimidin-7-yl]phenylcarbamate] | < 1 |
| CC(C)(C)C(=O)Nc1cccc(-c2ccnc3c(C(=O)c4cccs4)cnn23)c1 [Example 48, 2,2-dimethyl-N-{3-[3-(thien-2-ylcarbonyl)pyrazolo[1,5-a]pyrimidin-7-yl]phenyl}propanamide] | < 1 |

Same assay, conditions: Homo sapiens, 120 h; 80S14 (p21-deficient) cells, 5 days, SRB; class symbols; read-out: IC50 for 80S14

| Molecule | IC50 [µM] |
| --- | --- |
| O=C(c1cccs1)c1cnn2c(-c3cccc(-c4ccc(CN5CCOCC5)cc4)c3)ccnc12 [Example 459, {7-[4′-(Morpholin-4-ylmethyl)-1,1′-biphenyl-3-yl]pyrazolo[1,5-a]pyrimidin-3-yl}(thien-2-yl)methanone] | < 1 |
| CC(C)CC(=O)Nc1cccc(-c2ccnc3c(-c4cccc(CN(C)C)c4)cnn23)c1 [Example 497, N-[3-(3-{3-[(Dimethylamino)methyl]phenyl}pyrazolo[1,5-a]pyrimidin-7-yl)phenyl]-3-methylbutanamide] | 10 to 50 |
| CC(C)NC(=O)Nc1cccc(-c2ccnc3c(C(=O)c4ccco4)cnn23)c1 [Example 298, N-{3-[3-(2-Furoyl)pyrazolo[1,5-a]pyrimidin-7-yl]phenyl}-N′-isopropylurea] | < 1 |
| CC(C)NC(=O)c1cccc(-c2ccnc3c(C(=O)c4cccs4)cnn23)c1 [Example 322, N-Isopropyl-3-[3-(2-thienylcarbonyl)pyrazolo[1,5-a]pyrimidin-7-yl]benzamide] | < 1 |
| O=C(c1cccs1)c1cnn2c(-c3cccc(OC4CCCC4)c3)ccnc12 [Example 265, [7-[3-(Cyclopentyloxy)phenyl]pyrazolo[1,5-a]pyrimidin-3-yl]-2-thienyl-methanone] | 1 to 10 |
| O=C(c1ccccn1)c1cnn2c(-c3cccc(NC(=O)C4CC4)c3)ccnc12 [Example 337, N-{3-[3-(Pyridin-2-ylcarbonyl)pyrazolo[1,5-a]pyrimidin-7-yl]phenyl}cyclopropanecarboxamide] | 10 to 50 |

Same assay, conditions: Homo sapiens, 120 h; 80S14 p21-deficient cells, 5 days incubation, SRB; read-out: IC50 for 80SI4

| Molecule | IC50 [µM] |
| --- | --- |
| Cc1cnc2c(C(=O)c3cccs3)cnn2c1-c1cccc(NC(=O)NC(C)C)c1 [Example 222, N-isopropyl-N′-{3-[6-methyl-3-(thien-2-ylcarbonyl)pyrazolo[1,5-a]pyrimidin-7-yl]phenyl}urea] | 10 to 50 |
| O=C(COc1ccccc1)Nc1cccc(-c2ccnc3c(C(=O)c4cccs4)cnn23)c1 [Example 111, 2-phenoxy-N-{3-[3-(thien-2-ylcarbonyl)pyrazolo[1,5-a]pyrimidin-7-yl]phenyl}acetamide] | 1 to 10 |
| O=C(Cc1ccc2c(c1)OCO2)Nc1cccc(-c2ccnc3c(C(=O)c4cccs4)cnn23)c1 [Example 69, 2-(1,3-benzodioxol-5-yl)-N-{3-[3-(thien-2-ylcarbonyl)pyrazolo[1,5-a]pyrimidin-7-yl]phenyl}acetamide] | < 1 |
| C=CCCOC(=O)Nc1cccc(-c2c(C)cnc3c(C(=O)c4cccs4)cnn23)c1 [Example 213, but-3-enyl 3-[6-methyl-3-(thien-2-ylcarbonyl)pyrazolo[1,5-a]pyrimidin-7-yl]phenylcarbamate] | 10 to 50 |
| O=C(c1cccs1)c1cnn2c(-c3cccc(NS(=O)(=O)c4ccc(F)cc4)c3)ccnc12 [Example 34, 4-fluoro-N-{3-[3-(thien-2-ylcarbonyl)pyrazolo[1,5-a]pyrimidin-7-yl]phenyl}benzenesulfonamide] | < 1 |
| CN1CCCN(C(=O)Nc2cccc(-c3ccnc4c(C(=O)c5cccs5)cnn34)c2)CC1 [Example 167, 4-methyl-N-{3-[3-(thien-2-ylcarbonyl)pyrazolo[1,5-a]pyrimidin-7-yl]phenyl}-1,4-diazepane-1-carboxamide] | 1 to 10 |
| N#CCC(=O)Nc1cccc(-c2ccnc3c(C(=O)c4cccs4)cnn23)c1 [Example 60, 2-cyano-N-{3-[3-(thien-2-ylcarbonyl)pyrazolo[1,5-a]pyrimidin-7-yl]phenyl]acetamide] | < 1 |
| O=C(Nc1cccc(-c2ccnc3c(C(=O)c4cccs4)cnn23)c1)c1ccc(F)cc1 [Example 112, 4-fluoro-N-{3-[3-(thien-2-ylcarbonyl)pyrazolo[1,5-a]pyrimidin-7-yl]phenyl}benzamide] | < 1 |
| CC(CCl)(CCl)C(=O)Nc1cccc(-c2ccnc3c(C(=O)c4cccs4)cnn23)c1 [Example 141, 3-chloro-2-(chloromethyl)-2-methyl-N-{3-[3-(thien-2-ylcarbonyl)pyrazolo[1,5-a]pyrimidin7-yl]phenyl}propanamide] | < 1 |
| COc1ccc(C(=O)Nc2cccc(-c3ccnc4c(C(=O)c5cccs5)cnn34)c2)cc1OC [Example 99, 3,4-dimethoxy-N-{3-[3-(thien-2-ylcarbonyl)pyrazolo[1,5-a]pyrimidin-7-yl]phenyl}benzamide] | 1 to 10 |
| Cc1cnc2c(C(=O)c3cccs3)cnn2c1-c1cccc(NC(=O)c2ccccc2)c1 [Example 216, N-{3-[6-methyl-3-(thien-2-ylcarbonyl)pyrazolo[1,5-a]pyrimidin-7-yl]phenyl}benzamide] | 10 to 50 |
| CCC(OC(=O)Nc1cccc(-c2ccnc3c(C(=O)c4cccs4)cnn23)c1)C(C)C (stereo not shown) [Example 184, 1-ethyl-2-methylpropyl 3-[3-(thien-2-ylcarbonyl)pyrazolo[1,5-a]pyrimidin-7-yl]phenylcarbamate] | 1 to 10 |
| COc1cccc(CC(=O)Nc2cccc(-c3ccnc4c(C(=O)c5cccs5)cnn34)c2)c1 [Example 107, 2-(3-methoxyphenyl)-N-{3-[3-(thien-2-ylcarbonyl)pyrazolo[1,5-a]pyrimidin-7-yl]phenyl}acetamide] | < 1 |
| COCC(=O)Nc1cccc(-c2ccnc3c(C(=O)c4cccs4)cnn23)c1 [Example 61, 2-methoxy-N-{3-[3-(thien-2-ylcarbonyl)pyrazolo[1,5-a]pyrimidin-7-yl]phenyl]acetamide] | 1 to 10 |
| O=C(Nc1cccc(-c2ccnc3c(C(=O)c4cccs4)cnn23)c1)OCCN1CCOCC1 [Example 181, 2-morpholin-4-ylethyl 3-[3-(thien-2-ylcarbonyl)pyrazolo[1,5-a]pyrimidin-7-yl]phenylcarbamate] | < 1 |
| COc1ccc(OC)c(CC(=O)Nc2cccc(-c3ccnc4c(C(=O)c5cccs5)cnn34)c2)c1 [Example 110, 2-(2,5-dimethoxyphenyl)-N-{3-[3-(thien-2-ylcarbonyl)pyrazolo[1,5-a]pyrimidin-7-yl]phenyl}acetamide] | 1 to 10 |
| CCCCS(=O)(=O)Nc1cccc(-c2ccnc3c(C(=O)c4cccs4)cnn23)c1 [Example 29, N-{3-[3-(thien-2-ylcarbonyl)pyrazolo[1,5-a]pyrimidin-7-yl]phenyl}butane-1-sulfonamide] | 1 to 10 |
| O=C(c1cccs1)c1cnn2c(-c3cccc(NC(=O)C(Cl)(Cl)Cl)c3)ccnc12 [Example 49, 2,2,2-trichloro-N-{3-[3-(thien-2-ylcarbonyl)pyrazolo[1,5-a]pyrimidin-7-yl]phenyl}acetamide] | 1 to 10 |
| O=C(Cc1ccc(Cl)cc1)Nc1cccc(-c2ccnc3c(C(=O)c4cccs4)cnn23)c1 [Example 108, 2-(4-chlorophenyl)-N-{3-[3-(thien-2-ylcarbonyl)pyrazolo[1,5-a]pyrimidin-7-yl]phenyl}acetamide] | < 1 |
